Structures can show the parent of a compound that is named as a salt.
What was measured:
[1] = system: A-375 (human malignant melanoma); assay: Alamar blue cytotoxicity assay, A-375; assay type: cell-based; conditions: for IC50: A-375, Alamar blue, 24-h incubation, mean ± S.E.M.
Description: (§1) Human lung carcinoma (A549, ATCC® CCL-185™), human hepatocellular carcinoma (HepG2, ATCC® HB-8065™), and human breast adenocarcinoma (MDA-MB-231, ATCC® HTB-26™) were obtained from American Type Cell Collection (ATCC). Human melanoma (A-375, BCRJ-0278), Human colorectal adenocarcinoma (Caco-2, BCRJ 0059), human prostate adenocarcinoma (DU-145, BCRJ-0078, and PC-3, BCRJ-0269), human mouth fibroblast (FGH, BCRJ-0089), and human prostate epithelial cells (PNT-2, BCRJ-0366) were obtained from Rio de Janeiro Cells Bank (BCRJ). The cells A549, A-375, Caco-2, DU-145, HepG2, MDA-MB-231, and FGH were cultured in Dulbecco’s Modified Eagle’s Medium (DMEM, Gibco-Invitrogen®), PC-3 and PNT-2 cells were grown in Roswell Park Memorial Institute Medium (RPMI-1640, Gibco-Invitrogen®). Both mediums were supplemented according to the needs of each lineage, as recommended by its cell banks with 2 mM L-glutamine (Gibco-Invitrogen®), 10% or 20% fetal bovine serum (Gibco-Invitrogen®), 1% antibiotic-antimycotic solution (5 mg/ml penicillin, 5 mg/ml streptomycin, and 10 mg/ml neomycin, Gibco-Invitrogen®), and 3.7 g/L of NaHCO3 (Sigma-Aldrich). All cell lines were cultured in flasks at 37°C in 5% CO2 and 96% of relative humidity according to the procedures proposed by ([31]), and a mycoplasma stain kit (Sigma-Aldrich) was used to confirm the use of cells devoid of contamination. The assays were conducted between the third and the seventh-cell passage with sub-cultures every 3 to 4 days to maintain exponential growth. The cell viability was checked using the trypan blue dye exclusion assay for all experiments where over 95% of the cells were viable at the beginning of the tests.
(§2) The in vitro antiproliferative activity was quantified using the Alamar blue® assay, according to the method reported by ([32]). Cells were seeded in 96-well plates for all experiments (1.5 × 10^4 cells/well). After 24 h, the complexes were dissolved in DMSO and added to each well and incubated for 24 h. Dilutions of the complexes were prepared to obtain concentrations ranging from 0.3 to 100 μM. […] DMSO (0.1% v/v) was used as the vehicle control. Following 24 h of incubation, 50 μl of Alamar blue® (resazurin at 0.01% w/v, Sigma-Aldrich) was added to each well, and the plates were incubated, at 37°C, in the dark. Fluorescence reading was performed in a Synergy H1 Fluorescence Spectrophotometer (BioTek®), using excitation and emission filters at wavelengths of 560 and 590 nm, respectively. The fluorescence intensity was measured in arbitrary fluorescence units (AFU) and the AFU of untreated cells (CTL) was considered 100%. The cytotoxic effects of the compounds were estimated in terms of cell proliferation inhibition (%) and expressed as half-maximal inhibitory concentration (IC50). The cell proliferation inhibition percentage of cells exposed to treatments was calculated following: % Inhibition = 100 − (AFU of treated well/AFU of control well) × 100). The IC50 values were calculated from the cell proliferation inhibition percentage by nonlinear regression method using CompusSyn® Software.

[2] = system: A549 (human lung carcinoma); assay: Alamar blue cytotoxicity assay, A549; assay type: cell-based; conditions: for IC50: A549, Alamar blue, 24-h incubation, mean ± S.E.M.
Description: as §1, §2

[3] = system: DU-145 (human prostate adenocarcinoma); assay: Alamar blue cytotoxicity assay, DU-145; assay type: cell-based; conditions: for IC50: DU-145, Alamar blue, 24-h incubation, mean ± S.E.M.
Description: as §1, §2

[4] = system: HepG2 (human hepatocellular carcinoma); assay: Alamar blue cytotoxicity assay, HepG2; assay type: cell-based; conditions: for IC50: HepG2, Alamar blue, 24-h incubation, mean ± S.E.M.
Description: as §1, §2

[5] = system: MDA-MB-231 (human breast adenocarcinoma); assay: Alamar blue cytotoxicity assay, MDA-MB-231; assay type: cell-based; conditions: for IC50: MDA-MB-231, Alamar blue, 24-h incubation, mean ± S.E.M.
Description: as §1, §2

[6] = system: PC-3 (human prostate adenocarcinoma); assay: Alamar blue cytotoxicity assay, PC-3; assay type: cell-based; conditions: for IC50: PC-3, Alamar blue, 24-h incubation, mean ± S.E.M.
Description: as §1, §2

[7] = system: FGH (human mouth fibroblast); assay: Alamar blue cytotoxicity assay, FGH non-cancer cells; assay type: cell-based; conditions: 24-h incubation, mean ± S.E.M.
Description: as §1, §2

[8] = system: PNT-2 (human prostate epithelial cells); assay: Alamar blue cytotoxicity assay, PNT-2 non-cancer cells; assay type: cell-based; conditions: mean ± S.E.M.
Description: as §1, §2

DU-145 MCTSs = assay: 3D multicellular tumor spheroids (MCTSs) culture; assay type: cell-based, human; conditions: 3D spheroids, 24 h, Alamar blue; read-out: IC50 against the DU-145 MCTSs
Method: Multicellular tumor spheroids (MCTSs) were obtained according to the method reported by ([33]). Briefly, 200 μl of a solution of DU-145 cells (2.0 × 10^3 cells/well) were inserted in agarose-coated 96-well plates (1.5% w/v) and cultured in complete medium plus 3% Matrigel® (Corning). DU-145-MCTSs with stable structures had formed after five days. […] Negative control received the vehicle (DMSO 0.1% v/v) that was used for diluting the compounds tested. Finally, the MCTS proliferation inhibition (%) and IC50 were determined by Alamar blue® assay as described above. To investigate morphological changes other MCTSs were treated with 0.25, 0.5, 1.0, 1.5, and 2.0 μM of complex (2) and examined for 7 days. Spheroid integrity and diameter of MCTSs were analyzed by phase-contrast microscopy (Inverted Trinocular Microscope Opton TNB-O5T-PL) using AxioVision LE software (Carl Zeiss, Germany).

DU-145 cells [9] = assay: Clonogenic assay; assay type: cell-based, human; conditions: 24 h treatment, colonies after 7 days
Method: The clonogenic assay was performed in accordance with the guidelines of ([34]). […] DMSO (0.1% v/v) was used as the vehicle control. After 24 h, the cells were washed with PBS (Gibco-Invitrogen®) and harvested by trypsinization. Cells were counted using a Neubauer chamber and replated then on cell culture dishes of 21.5 cm^2 in a density of 200 cells per culture dish for each treatment in triplicate. After 7 days, cells were fixed in ice-cold methanol: acetic acid: distilled water (1:1:8), air-dried, and stained with crystal violet (0.5% w/v, Sigma-Aldrich) for 20 min. Colonies with at least 50 cells were counted. Plating efficiency (PE) of DU-145 cells was calculated by the ratio of the number of colonies observed after 7 days of incubation to the number of cells seeded (two hundred). The average of colonies in control was considered as 100%, and the number of colonies that arise after treatment of cells is called the surviving fraction (SF), obtained by:
SF = Numberofcoloniescountedineachtreatment/Numberofcoloniescountedincontrol x PE × 100

DU-145 cells [10] = assay: Annexin-V/PI staining assay (flow cytometry); assay type: cell-based, human; conditions: DU-145, 25 μM (~IC50), 24 h
Method: The measurement of cell death was performed by the guidelines of ([35]). Detection of apoptotic/necrotic cells was determined by flow cytometry using the Alexa Fluor® 488 Annexin V/PI (Thermo Fischer Scientific), and the analyses were performed according to the manufacturer’s instructions. […] DMSO (0.1% v/v) was used as the vehicle control. Following 24 h of incubation, the cells were collected with Accutase® (Gibco-Invitrogen®), washed with PBS and resuspended in 200 μl of cold annexin-binding buffer. Next, 10 μl of Alexa Fluor® was added to Annexin V (50 μl/ml) staining buffer, and the mixture was incubated in the dark at 4°C for 15 min. Previously, the analyses, 100 μl of PI (2 μg/ml) was added, and then, the fluorescence was measured by flow cytometry in a FACSCanto flow cytometer (BD Biosciences, USA) using the Diva software. Ten thousand events were evaluated per experiment, and cellular debris was omitted from the analysis.

[11] = system: Caco-2 (human colorectal adenocarcinoma); assay: Alamar blue cytotoxicity assay, Caco-2; assay type: cell-based; conditions: for IC50: Homo sapiens, Caco-2, Alamar blue, 24-h incubation, mean ± S.E.M.
Description: as §1, §2

[12] = set-up: method as in PMID 30776556; conditions: previously tested, not tested in the present work; read-out: IC50 (weak cytotoxicity); cited from earlier work
[13] = Homo sapiens, PNT2, 24-h incubation

## N.N.[Cl][Pt][Cl] [CIS, Cisplatin, reference compound]
[1]
  IC50: 16.5 ± 2.3 µM
[2]
  IC50: 11.9 ± 0.6 µM
[3]
  IC50: 24.3 ± 1.3 µM
[4]
  IC50: 14.1 ± 0.5 µM
[5]
  IC50: 22.1 ± 1.7 µM
[6]
  IC50: 10.8 ± 1.1 µM
[7]
  IC50: 11.4 ± 0.5 µM
[8]; 24-h incubation
  IC50: 9.5 ± 0.3 µM
DU-145 MCTSs
  IC50: 62.6 µM
DU-145 cells [9]; DU-145, 25 μM
  survival fraction (SF): 69.1%
DU-145 cells [10]
  population of apoptotic cells: 19.5%

## COc1cccc2c1C(=O)c1c(O)c3c(c(O)c1C2=O)C[C@@](O)(C(=O)CO)C[C@@H]3O[C@H]1C[C@H](N)[C@H](O)[C@H](C)O1 [DXR, doxorubicin hydrochloride, reference compound]
[1]; Homo sapiens
  IC50: 3.7 ± 0.6 µM
[1]; SI = IC50[FGH]/IC50[A-375]
  Selectivity index (SI): 0.7
[1]; SI = IC50[PNT-2]/IC50[A-375]
  Selectivity index (SI): 0.9
[2]; Homo sapiens
  IC50: 1.9 ± 0.4 µM
[2]; SI = IC50[FGH]/IC50[A549]
  Selectivity index (SI): 1.4
[2]; SI = IC50[PNT-2]/IC50[A549]
  Selectivity index (SI): 1.7
[11]
  IC50: 2.1 ± 0.8 µM
[11]; SI = IC50[FGH]/IC50[Caco-2]
  Selectivity index (SI): 1.2
[11]; SI = IC50[PNT-2]/IC50[Caco-2]
  Selectivity index (SI): 1.5
[3]; Homo sapiens
  IC50: 2.3 ± 0.5 µM
[3]; SI = IC50[FGH]/IC50[DU-145]
  Selectivity index (SI): 1.1
[3]; SI = IC50[PNT-2]/IC50[DU-145]
  Selectivity index (SI): 1.4
[4]; Homo sapiens
  IC50: 2.4 ± 0.8 µM
[4]; SI = IC50[FGH]/IC50[HepG2]
  Selectivity index (SI): 1.1
[4]; SI = IC50[PNT-2]/IC50[HepG2]
  Selectivity index (SI): 1.3
[5]; Homo sapiens
  IC50: 2.1 ± 0.7 µM
[5]; SI = IC50[FGH]/IC50[MDA-MB-231]
  Selectivity index (SI): 1.2
[5]; SI = IC50[PNT-2]/IC50[MDA-MB-231]
  Selectivity index (SI): 1.5
[6]; Homo sapiens
  IC50: 2.6 ± 0.3 µM
[6]; SI = IC50[FGH]/IC50[PC-3]
  Selectivity index (SI): 1.0
[6]; SI = IC50[PNT-2]/IC50[PC-3]
  Selectivity index (SI): 1.2
[7]; Homo sapiens, Fibroblast
  IC50: 2.6 ± 0.6 µM
[8]; [13]
  IC50: 3.2 ± 0.5 µM
DU-145 cells [9]; DU-145, 2.5 μM
  survival fraction (SF): 18.7%

## CC(C)=CCC1=C(O)C(=O)c2ccccc2C1=O [Lp, 2-hydroxy-3-(3-methylbut-2-en-1-yl)naphthalene-1,4-dione, reference compound]
[1]; Homo sapiens
  IC50: > 100 µM
[2]; Homo sapiens
  IC50: > 100 µM
[11]
  IC50: > 100 µM
[3]; Homo sapiens
  IC50: > 100 µM
[4]; Homo sapiens
  IC50: > 100 µM
[5]; Homo sapiens
  IC50: > 100 µM
[6]; Homo sapiens
  IC50: > 100 µM
[7]; Homo sapiens, Fibroblast
  IC50: > 100 µM
[8]; [13]
  IC50: > 100 µM

## [Cl][Ru][Cl].c1ccc(-c2ccccn2)nc1.c1ccc(P(CP(c2ccccc2)c2ccccc2)c2ccccc2)cc1 [cis-[RuCl2(dppm)(bipy)]]
[12]
  IC50: > 100 µM

## [Cl][Ru][Cl].c1ccc(P(CP(c2ccccc2)c2ccccc2)c2ccccc2)cc1.c1cnc2c(c1)ccc1cccnc12 [cis-[RuCl2(dppm)(phen)]]
[12]
  IC50: > 100 µM
